Consider three compounds from patent US7534871B2, “Preparation and use of carbohydrate-based bicyclic ring structures with antimicrobial and cytostatic activity” (Kemin Pharma B.V.B.A., priority 2004, dated 2009).

Data set [1] deals with human T-lymphocyte cells (CEM/0). The data set is described as follows: Cytostatic activity: inhibition of proliferation of CEM/0 cells. Type of data set: cell-based. Conditions: CCRF-CEM, 50% inhibitory concentration, cell proliferation, read-out: IC50 CEM/0. Here is the method:
(§1) The compounds were tested for anti-tumor activity via the inhibitory effects on the proliferation of murine leukemia cells (L1210/0), murine mammary carcinoma cells (FM3A), human T-lymphocyte cells (Molt4/C8, CEM/0) and human cervix carcinoma cells (HeLa).

For data set [2], the system named is murine leukemia cells (L1210/0). Briefly: Cytostatic activity: inhibition of proliferation of L1210/0 cells. Type of data set: cell-based. Particulars: Mus musculus, L1210/0; 50% inhibitory concentration, cell proliferation; read-out: IC50 L1210/0. Here is the method: as §1
In data set [3] the test system is human T-lymphocyte cells (Molt4/C8). Briefly: Cytostatic activity: inhibition of proliferation of Molt4/C8 cells. Particulars: Molt4/C8, 50% inhibitory concentration, cell proliferation, read-out: IC50 Molt4/C8. Format: cell-based. As to the method: as §1
The test system of data set [4] is VZV YS. The data set is described as follows: Anti-viral activity: VZV-induced plaque formation in HEL cell cultures, YS strain. Conditions: Human alphaherpesvirus 3, VZV-induced plaque formation in human embryonic lung HEL cell cultures, 50%. Type of data set: cell-based, varicella zoster virus (VZV).
In data set [5] the test system is HEL cells. The data set is described as follows: Cytotoxicity: alteration of cell morphology (MCC). Format: cell-based, human. Particulars: minimum cytotoxic concentration that causes a microscopically detectable alteration of cell morphology.
Data set [6] concerns VV. Briefly: microbe, parasite or virus in culture. Type of data set: cell-based. Particulars: Orthopoxvirus vaccinia, E6SM, read-out: EC50 VV (E6SM).
The subject of data set [7] is VZV OKA. Briefly: microbe, parasite or virus in culture. Particulars: Human alphaherpesvirus 3, HEL, read-out: EC50 VZV (HEL) OKA. Format: cell-based, varicella zoster virus (VZV).
Data set [8] deals with murine mammary carcinoma cells (FM3A). Briefly: Cytostatic activity: inhibition of proliferation of FM3A cells. Particulars: Mus musculus, 50% inhibitory concentration, cell proliferation, read-out: IC50 FM3A/0. Format: cell-based. Here is the method: as §1
Data set [9] concerns CMV Davis strain. The data set is described as follows: Anti-CMV activity: plaque reduction in HEL cells, Davis strain. Particulars: Human betaherpesvirus 5, HEL; Table 6; reduce virus plaque formation by 50%; virus input 100 PFU; read-out: Anti-CMV activity IC50 Davis strain. Format: cell-based, human cytomegalovirus (CMV).
In data set [10] the test system is CMV AD-169 strain. Briefly: Anti-CMV activity: plaque reduction in HEL cells, AD-169 strain. Format: cell-based, human cytomegalovirus (CMV). Particulars: Human betaherpesvirus 5, AD169, HEL; Table 6; reduce virus plaque formation by 50%; virus input 100 PFU; read-out: Anti-CMV activity IC50 AD-169 strain.
Data set [11] relates to HSV-1 (KOS). Briefly: Anti-viral activity: HSV-1-induced cytopathicity in human embryo fibroblast E6SM cell cultures. Format: cell-based, herpes simplex virus (HSV). Particulars: Human alphaherpesvirus 1, 50%. On the technique in general: Protection from cytopathic effect is a common read-out in antiviral testing.
Data set [12] has as its system HSV-2 (G). The data set is described as follows: Anti-viral activity: HSV-2-induced cytopathicity in human embryo fibroblast E6SM cell cultures. Format: cell-based, herpes simplex virus (HSV). Conditions: Human alphaherpesvirus 2, 50%.
Data set [13] in a line: Cytotoxicity: inhibition of HEL cell growth (CC50). Format: cell-based. Conditions: human; concentration required to reduce cell growth by 50%; HEL cells, three days. As to the method: The medium was then replaced by MEM containing various concentrations of the test compound. After three days incubation at 37° C., when the cell monolayer was 70% confluent, the cell number was determined with the Coulter counter. The minimum cytotoxic concentration was defined as the concentration required to reduce cell growth by 50%.

Data set [14] has as its system human cervix carcinoma cells (HeLa). The data set is described as follows: Cytostatic activity: inhibition of proliferation of HeLa cells. Format: cell-based. Particulars: 50% inhibitory concentration, cell proliferation. As to the method:
as §1

Converted amounts (≈) assume the structure as drawn. Some results are limits rather than exact numbers.

By EC50 is commonly meant the midpoint of the concentration-response curve. Broadly, the CC50 is the concentration at which the toxic effect on the cells reaches its halfway point. Read a low CC50 as greater toxicity to the cells. For `CO[C@@H]1[C@@H](OC)[C@H](Sc2ccccc2)O[C@@H]2CO[C@@H](c3ccccc3)O[C@@H]12` [KPE00001045], the IC50 in [1] was over 200 µg/mL; in data set [2], over 200 µg/mL; in data set [3] it was over 200 µg/mL; in data set [8], over 200 µg/mL; in [9], over 5 µg/mL; in data set [10] it was over 5 µg/mL. Moreover, the EC50 in data set [4] was over 2 µg/mL; in [6] it was over 3.2 µg/mL; in data set [7], over 2 µg/mL; in data set [11], over 3.2 µg/mL; in data set [12], over 3.2 µg/mL. Besides, the “Cytotoxicity Cell morphology (MCC)” value in data set [5] stood at 20 μg/ml. In addition, the CC50 at 3 days in data set [13] was determined as 50 µg/mL (≈ 129 µM).
Take `O[C@@H]1[C@@H](O)[C@H](Sc2ccccc2)O[C@@H]2CO[C@@H](c3ccccc3)O[C@@H]12` [KPE00001048]: the IC50 in data set [1] was determined as 75 ± 31 µg/mL (≈ 208 µM); in data set [2], 103 ± 10 µg/mL (≈ 286 µM); in data set [3], 78 ± 12 µg/mL (≈ 216 µM); in [8], 171 ± 41 µg/mL (≈ 474 µM); in data set [9], 35 µg/mL (≈ 97.1 µM); in [10] it was 33 µg/mL (≈ 91.6 µM). Besides, the concentration giving a half-maximal response (EC50) in data set [4] is over 50 µg/mL; in data set [6] it was over 80 µg/mL; in [7] it was over 50 µg/mL; in data set [11], over 80 µg/mL; in data set [12] it was over 80 µg/mL. Moreover, in data set [5], the “Cytotoxicity Cell morphology (MCC)” value was over 50 μg/ml. In [13], this compound had a CC50 at 3 days of over 50 µg/mL.
As for `CCO[C@@H]1[C@@H](OCC)[C@H](Sc2ccccc2)O[C@@H]2CO[C@@H](c3ccccc3)O[C@@H]12` [KPE00001050], the IC50 in data set [1] was over 200 µg/mL; in [2], over 200 µg/mL; in data set [3], over 200 µg/mL; in data set [14], over 200 µg/mL; in data set [8] it was over 200 µg/mL; in data set [9], over 50 µg/mL. Further, the IC50 in [10] is over 50 µg/mL. Besides, the EC50 in [4] is over 5 µg/mL; in data set [6], over 3.2 µg/mL; in data set [7], over 5 µg/mL; in data set [11], over 3.2 µg/mL; in data set [12], over 3.2 µg/mL. Besides, in [5], the “Cytotoxicity Cell morphology (MCC)” value is over 50 μg/ml. In data set [13], this compound yielded a CC50 at 3 days of over 50 µg/mL.
